Measurements: patent US11939377B2, “Affinity matured CD22-specific monoclonal antibody and uses thereof” (The U.S.A., as represented by the Secretary, Department of …, priority 2018, dated 2024)

System: CD19 expression on ALL and DLBCL cell lines
Assay: CD19 expression on cell lines by flow cytometry after Bryostatin 1 exposure
Type: cell-based, human
Settings: 1 ng/ml, 24 hours
Protocol: FIGS. 3A-3D: (FIG. 3A) Four cell lines (Nalm6, Kopn8, Pfieffer and Toldeo) were co-incubated with 1 ng/ml Bryostatin 1 for 24 hours and analyzed using flow cytometry one day after Bryostatin 1 exposure. Site density was analyzed using standardized Quantibrite-PE beads. (FIG. 3B) Cell lines were co-incubated with 1 ng/ml Bryostatin 1 for 24 hours, washed, and analyzed using flow cytometry at 1 and 7 days after Bryostatin 1 exposure. Fold change was calculated based on site density: (Cell line Bryostatin 1—Cell line DMSO)/Cell line DMSO. (FIG. 3C) NSG mice were injected with 1×10^6 GPF-positive Nalm6 leukemia cells on Day 0. Bryostatin 1 was administered at 0.8 μg/kg on Day 3. Mice were sacrificed 7 and 12 days after Bryostatin 1 injection and CD22 was evaluated by flow cytometry. (FIG. 3D) CD22-low relapse PDX cell line was cultured in vitro with 1 nmol/L Bryostatin 1 for 24 hours and measured for CD22 expression using CD22 antibody. […]
FACS analysis of cell surface CAR and protein expression was performed using an LSR II Fortessa flow cytometer (BD Biosciences). CD22-CAR was detected by incubation with 22-Fc (R&D Systems), followed by incubation with human IgG-specific PE-F(ab)2 (Thermo Fisher Scientific). […] CD22 site density was determined using QuantiBrite-PE beads (BD Biosciences) using methods previously described (Jasper et al., Cytometry B Clin Cytom 80(2):83-90, 2011). […]

CCC/C=C/C=C/C(=O)O[C@H]1/C(=C/C(=O)OC)C[C@H]2C[C@H]([C@@H](C)O)OC(=O)C[C@H](O)C[C@@H]3C[C@H](OC(C)=O)C(C)(C)[C@](O)(C[C@@H]4C/C(=C/C(=O)OC)C[C@H](/C=C/C(C)(C)[C@]1(O)O2)O4)O3 [Bryostatin 1]
CD19 expression on ALL: did not alter
CD19 expression on DLBCL: modest increase
